Reference: patent publication US20050282887A1, “Novel sulfamate and sulfamide derivatives useful for the treatment of epilepsy and related disorders” (priority 2004, published 2005)
Values belong to the compound of their own block, whether it stands above or below them.

Assays:
[1] = tested on: CF-1 male albino mice; test: Maximal Electroshock Test (MES), anticonvulsant activity; format: in vivo
Experimental: Anticonvulsant activity was determined using the MES test, run according to the procedure described in detail below. Swinyard E A, Woodhead J H, White H S, Franklin M R. Experimental selection, quantification, and evaluation of anticonvulsants. In Levy R H, et al., eds. Antiepileptic Drugs. 3rd ed. New York: Raven Press, 1989:85-102
CF-1 male albino mice (25-35 g) were fasted for 16 hours before testing. Mice were randomly selected into control and test groups, with the animals dosed with vehicle or test compound, at varying concentrations, respectively. On the study date, at 30 minutes prior to shock, the mice were orally dosed with vehicle (0.5% methylcellulose) or test compound (100-300 mg/kg). Seizures were induced by trans-corneal electric shock using a 60-Hz alternating current, 50 mA, delivered for 0.2 sec. The mice in the test groups were subjected to electrical stimulus at time intervals between 15 minutes and 4 hours following administration of test compound. […] The test was complete when the entire course of the convulsion has been observed (typically, less than 1 minute after electrical stimulation), and the mice were then immediately euthanized by carbon dioxide inhalation.
Abolition of the full body tonic extensor component of the seizure was taken as the endpoint of the test. […] The ED50 value of the test compound (calculated when appropriate) was the calculated dose required to block the hind limb tonic-extensor component of the MES-induced seizure in 50% of the rodents tested. A probit analysis was used to calculate the ED50 and 95% fiducial limits (FL).
Representative compounds of the present invention were tested according to the procedure described above, with results as listed in Table 4 below. Results are listed as number of mice with full body tonic extension prevented/total number of mice tested @ a given time (at a given test compound dosage level).

[2] = tested on: carbonic anhydrase; details: cited from earlier work

melting point: 113 to 116 °C
Compound: NS(=O)(=O)OC[C@H]1COc2cc(Cl)ccc2O1 [Compound #12, Sulfamic acid, 6-chloro-2,3-dihydro-benzo[1,4]dioxin-2-ylmethyl ester]
MES Activity: number of mice with full body tonic extension prevented/total number of mice tested ([1]; @ 4 h, 100 mg/kg oral): 3/5 @ 4 h (100 mg/kg)

Compound: NS(=O)(=O)NCC1COc2ccccc2O1 (racemic) [Compound #1, N-(2,3-Dihydro-benzo[1,4]dioxin-2-ylmethyl)-sulfamide]
MES Activity: number of mice with full body tonic extension prevented/total number of mice tested ([1]; @ 1 h, 300 mg/kg oral): 2/4 @ 1 h (300 mg/kg)

melting point: 100 to 101 °C
Compound: NS(=O)(=O)NCC1CCc2ccccc2O1 (stereo not drawn) [Compound #10, Chroman-2-ylmethylsulfamide]
MES Activity: number of mice with full body tonic extension prevented/total number of mice tested ([1]; @ 1 h, 100 mg/kg oral): 1/5 @ 1 h (100 mg/kg)

Compound: NS(=O)(=O)NC[C@H]1COc2ccccc2O1 [Compound #4, (2S)-(−)-N-(2,3-Dihydro-benzo[1,4]dioxin-2-ylmethyl)-sulfamide]
MES Activity: number of mice with full body tonic extension prevented/total number of mice tested ([1]; @ 1 h, 300 mg/kg oral): 5/5 @ 1 h (300 mg/kg)

Compound: Nc1ccc2c(c1)O[C@@H](CNS(N)(=O)=O)CO2 [Compound #36, (2S)-(−)-N-(7-Amino-2,3-dihydro-benzo[1,4]dioxin-2-ylmethyl)-sulfamide]
MES Activity (result in words) ([1]; @ 100 and 300 mg/kg oral): Inactive @ 100 and 300 mg/kg

melting point: 97 to 98 °C
Compound: CN(CC1COc2ccccc2O1)S(N)(=O)=O (racemic) [Compound #7, N-(2,3-Dihydro-benzo[1,4]dioxin-2-ylmethyl)-N-methylsulfamide]
MES Activity: number of mice with full body tonic extension prevented/total number of mice tested ([1]; @ 0.5 h, 300 mg/kg oral): 3/3 @ 0.5 h (300 mg/kg)

Compound: Cc1ccc2c(c1)O[C@@H](CNS(N)(=O)=O)CO2 [Compound #19, (2S)-(−)-N-(7-Methyl-2,3-dihydro-benzo[1,4]dioxin-2-ylmethyl)-sulfamide]
MES Activity: number of mice with full body tonic extension prevented/total number of mice tested ([1]; @ 0.5 h, 300 mg/kg oral): 5/5 @ 0.5 h (300 mg/kg)

Compound: NS(=O)(=O)NC[C@H]1COc2cc(Cl)ccc2O1 [Compound #8, (2S)-(−)-N-(6-Chloro-2,3-dihydro-benzo[1,4]dioxin-2-ylmethyl)-sulfamide]
MES Activity: number of mice with full body tonic extension prevented/total number of mice tested ([1]; @ 3 h, 100 mg/kg oral): 3/5 @ 3 h (100 mg/kg)

melting point: 87 to 90 °C
Compound: NS(=O)(=O)OCC1CCc2ccccc2O1 (stereo not drawn) [Compound #11, Chroman-2-ylmethylsulfamate]

melting point: 119 to 121 °C
Compound: NS(=O)(=O)NC[C@H]1COc2cc(Cl)c(Cl)cc2O1 [Compound #29, (2S)-(−)-N-(6,7 Dichloro-2,3-dihydro-benzo[1,4]dioxin-2-ylmethyl)-sulfamide]
MES Activity: number of mice with full body tonic extension prevented/total number of mice tested ([1]; @ 4 h, 100 mg/kg oral): 3/5 @ 4 h (100 mg/kg)

Compound: CC1(C)O[C@@H]2[C@@H](CO[C@@]3(COS(N)(=O)=O)OC(C)(C)O[C@@H]23)O1 [Topiramate]
carbonic anhydrase inhibition [2]: single digit micromolar

Compound: NS(=O)(=O)NCC1COc2ccccc2OC1 [Compound #3, ((3,4-Dihydro-2H-benzo[b][1,4]dioxepin-3-yl)methyl)sulfamide]
MES Activity: number of mice with full body tonic extension prevented/total number of mice tested ([1]; @ 1 h, 300 mg/kg oral): 2/3 @ 1 h (300 mg/kg)

Compound: Sulfamic acid, 6,7 dichloro-2,3-dihydro-benzo[1,4]dioxin-2-ylmethyl ester [Compound #27]
MES Activity: number of mice with full body tonic extension prevented/total number of mice tested ([1]; @ 4 h, 100 mg/kg oral): 5/5 @ 4 h (100 mg/kg)

melting point: 101 to 103 °C
Compound: NS(=O)(=O)NCCC1COc2ccccc2O1 (stereo not drawn) [Compound #16, 2-(2,3-Dihydro-benzo[1,4]dioxin-2-yl)-ethylsulfamide]
MES Activity: number of mice with full body tonic extension prevented/total number of mice tested ([1]; @ 0.5 h, 300 mg/kg oral): 5/5 @ 0.5 h (300 mg/kg)

melting point: 76 to 78 °C
Compound: CN(C)S(=O)(=O)NCC1COc2ccccc2O1 (racemic) [Compound #6, N-(2,3-Dihydro-benzo[1,4]dioxin-2-ylmethyl)-N′,N′ dimethylsulfamide]
MES Activity: number of mice with full body tonic extension prevented/total number of mice tested ([1]; @ 0.5 h, 300 mg/kg oral): 4/5 @ 0.5 h (300 mg/kg)

Compound: NS(=O)(=O)NC[C@H]1COc2ccc(Cl)cc2O1 [compound 14, (2S)-(−)-N-(7-Chloro-2,3-dihydro-benzo[1,4]dioxin-2-ylmethyl)-sulfamide]
MES Activity: number of mice with full body tonic extension prevented/total number of mice tested ([1]; @ 4 h, 100 mg/kg oral): 3/5 @ 4 h (100 mg/kg)

Compound: NS(=O)(=O)NCC1Oc2ccccc2O1 [Compound #2, (Benzo[1,3]dioxol-2-ylmethyl)sulfamide]
MES Activity: number of mice with full body tonic extension prevented/total number of mice tested ([1]; @ 2 h, 100 mg/kg oral): 4/4 @ 2 h (100 mg/kg)

Compound: NS(=O)(=O)NC[C@H]1COc2ccc([N+](=O)[O-])cc2O1 [compound 18, (2S)-(−)-N-(2,3-Dihydro-7-nitro-benzo[1,4]dioxin-2-ylmethyl)-sulfamide]
MES Activity (result in words) ([1]; @ 100 mg/kg oral): Inactive @ 100 mg/kg
